This test deals with Hep G2 cells. Description: Cellstain double staining (Live/Dead, calcein AM / propidium iodide) viability after freeze-drying and rehydration. The following applies: 24 h trehalose incubation, same lyoprotectants, liquid nitrogen freezing; with vs without GrowDex. In kind it is cell-based, human. The text has this: One method to evaluate the cell membrane integrity is enzyme activity assays combined with nuclei staining. Calcein AM (acetoxy methyl) ester and propidium iodide are suitable for viability assessment of different microbes. Calcein AM is itself a non-fluorescent and cell membrane permeable molecule, but undergoes an esterase reaction when in cytosol if correct enzymes are available and transforms into calcein, which is a fluorescent molecule. This way, the fluorescent cells can be visually observed with fluorescence microscopy or a plate reader.
Therefore, only necrotic cells are affected, whereas apoptotic and healthy cells not. Once in the cytosol, the PI binds to any available DNA and RNA, including the DNA in nucleus. When excited with 535 nm light, an emission of 617 nm can be observed on the areas of dead cells.
Three lyoprotectants were chosen for testing with GrowDex®. First, the cells were cultivated regularly for 4 days either in 2D or 3D with 0.8% (w/w) of GrowDex®, and then the medium was changed. […] Then, the systems were freeze-dried and rehydrated and evaluated for viability with Cellstain double staining and fluorescence microscopy. […]
Autofluorescence was ruled out by killed control samples that were stained and imaged at the same time showing no green fluorescence in identical settings. […]

On to `OC[C@H]1O[C@H](O[C@H]2O[C@H](CO)[C@@H](O)[C@H](O)[C@H]2O)[C@H](O)[C@@H](O)[C@@H]1O` [trehalose, α-D-glucopyranosyl-(1→1)-α-D-glucopyranoside], for which the “Live/dead dual staining outcome after freeze-drying and rehydration” value was “the cells did not survive”.

Source of the values: patent publication US11969505B2, “Method for freeze-drying cells in a hydrogel comprising nanofibrillar cellulose and freeze-dried cells in an aerogel comprising nanofibrillar cellulose” (UPM-KYMMENE CORPORATION, priority 2016, dated 2024).
